Measurements from US20240092835A1, “NOVEL PEPTIDES CAPABLE OF ALTERING NK CELL ACTIVITY” (Massachusetts Institute of Technology, priority 2022, published 2024).
Where no end group is shown, it is not given here.

Experiments:
HLA-E = molecular target: T1, HLA-E (Homo sapiens, UniProt P13747); assay: HLA-E surface stabilization assay with RMA-S/HLA-E cells; format: cell-based; conditions: 30 μM peptide, 16 hours; for HLA-E surface expression stability (GeoMFI): anti-HLA-E antibody
T1 construct: expressed in transfected cells; host or cells: RMA-S/HLA-E cells (antigen processing-defective lymphoma cell line)
T1 sequence (P13747 22-358): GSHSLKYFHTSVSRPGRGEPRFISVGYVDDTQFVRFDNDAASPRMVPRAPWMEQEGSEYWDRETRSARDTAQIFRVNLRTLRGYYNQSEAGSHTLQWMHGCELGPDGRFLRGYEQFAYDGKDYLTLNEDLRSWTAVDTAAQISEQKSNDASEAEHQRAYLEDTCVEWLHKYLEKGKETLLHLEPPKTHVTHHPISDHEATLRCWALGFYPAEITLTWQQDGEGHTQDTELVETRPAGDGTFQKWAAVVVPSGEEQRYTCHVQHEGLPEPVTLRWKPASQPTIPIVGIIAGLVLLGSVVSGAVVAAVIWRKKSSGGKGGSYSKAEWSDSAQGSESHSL
T1 sequence (P61769 21-119 partner): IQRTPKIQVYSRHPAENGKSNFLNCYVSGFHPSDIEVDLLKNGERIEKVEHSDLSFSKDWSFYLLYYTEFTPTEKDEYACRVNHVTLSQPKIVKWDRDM
Description: HLA-E surface expression was assessed by measuring geometric mean fluorescence intensity (GeoMFI) in RMA-S cells following immunofluorescence staining with an anti-HLA-E antibody (Table 14). Increased GeoMFI was indicative of increased HLA-E surface expression stability following novel peptide exposures (FIG. 3).

CD94/NKG2C = CD94/NKG2C (Homo sapiens, UniProt P26717+Q13241); assay: Steady-state surface plasmon resonance of peptide-HLA-E complex with CD94/NKG2C; format: binding; conditions: for Binding of peptide-HLA-E complexes to CD94/NKG2C normalized to a theoretical Rmax: steady-state SPR
Sequence of CD94/NKG2C (P26717 94-231 limits assumed): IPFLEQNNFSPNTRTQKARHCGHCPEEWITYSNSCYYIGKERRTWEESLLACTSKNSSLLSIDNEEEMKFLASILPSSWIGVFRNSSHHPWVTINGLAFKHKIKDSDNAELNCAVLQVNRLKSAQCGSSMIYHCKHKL
Sequence of CD94/NKG2C (Q13241 32-179 limits assumed): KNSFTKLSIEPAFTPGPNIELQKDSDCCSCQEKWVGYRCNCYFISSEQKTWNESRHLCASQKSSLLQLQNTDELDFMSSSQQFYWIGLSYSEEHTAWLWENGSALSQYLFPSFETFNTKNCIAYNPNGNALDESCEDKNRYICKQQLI
Description: (§1) Binding affinity of novel peptides linked to HLA-E was determined using surface plasmon resonance (SPR), a methodology used to study protein-protein interactions (Tables 15-19). The peptide-HLA-E complex (generated as a single chain trimer) was immobilized on the sensor chip surface and CD94/NKG2A or CD94/NKG2C were flowed over. Steady-state surface plasmon resonance experiments were performed with a Biacore T200 instrument. CD94/NKG2x in HBS-EP+ buffer was injected as analyte in a concentration range of 0.1 μM to 102.4 μM and flow rate of 10 μL/min at 25° C. Data was fit with Prism 9.4 (GraphPad Software Inc; San Diego CA) to a “one site, specific binding” model. Series S CM5 chips were coupled to neutravidin and utilized. Biotinylated pMHC was immobilized at approximately 400 RU. KD values calculated by Biacore software are reported. Rmax, fit values were calculated by Biacore software. Rmax, theoretical values were calculated using the analyte/ligand mass ratio (0.66) multiplied by the amount of ligand coupled to the chip.

CD94/NKG2A = CD94/NKG2A (Homo sapiens, UniProt P26715+Q13241); assay: Steady-state surface plasmon resonance of peptide-HLA-E complex with CD94/NKG2A; format: binding; conditions: for Binding of peptide-HLA-E complexes to CD94/NKG2A normalized to a theoretical Rmax: steady-state SPR
Sequence of CD94/NKG2A (P26715 94-233 limits assumed): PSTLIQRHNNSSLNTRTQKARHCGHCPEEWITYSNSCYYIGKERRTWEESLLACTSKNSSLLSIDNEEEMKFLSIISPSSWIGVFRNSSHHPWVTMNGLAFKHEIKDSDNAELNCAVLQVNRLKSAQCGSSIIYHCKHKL
Sequence of CD94/NKG2A (Q13241 32-179 limits assumed): as the sequence (Q13241 32-179 limits assumed) above
Description: as §1

NKG2A+/NKG2C− NK cells = assay: NK cell activation markers in NKG2A+/NKG2C- NK cells incubated with peptide and K562 expressing HLA-E (inhibition); format: cell-based, human; conditions: for percentage of CCL3+ NK cells / percentage of CD107a+ NK cells / percentage of IFNG+ NK cells / percentage of TNF+ NK cells: NKG2A+/NKG2C- NK cells, K562/HLA-E
Summary of the method: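 Percent of NK cells positive for cell-surface markers was measured after exposure to K562 targets expressing HLA-E and loaded with human- or HCMV-proteome-derived peptides. A decrease means inhibition, an increase activation; NKG2A−/NKG2C− cells served as controls.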

TLPKRGLFL [human2, TLPKRGLFL]
HLA-E surface expression stabilization strength (in words) (HLA-E): moderate
HLA-E surface expression stability (GeoMFI) (HLA-E; Trial 1): 2019 GeoMFI
HLA-E surface expression stability (GeoMFI) (HLA-E; Trial 2): 2029 GeoMFI
HLA-E surface expression stability (GeoMFI) (HLA-E; Trial 3): 1731 GeoMFI
HLA-E surface expression stability (GeoMFI) (HLA-E; Trial 4): 2795 GeoMFI
HLA-E surface expression stabilization strength, approximate GeoMFI (HLA-E; approximate value): approximately 2×10^3 GeoMFI
binding of peptide-HLA-E complex to CD94/NKG2C normalized to a fitted Rmax (CD94/NKG2C; CD94/NKG2C concentration 0 μM): −0.005
binding of peptide-HLA-E complex to CD94/NKG2C normalized to a fitted Rmax (CD94/NKG2C; CD94/NKG2C concentration 0.1 μM): 0.003
binding of peptide-HLA-E complex to CD94/NKG2C normalized to a fitted Rmax (CD94/NKG2C; CD94/NKG2C concentration 0.2 μM): 0.009
binding of peptide-HLA-E complex to CD94/NKG2C normalized to a fitted Rmax (CD94/NKG2C; CD94/NKG2C concentration 0.4 μM): 0.023
binding of peptide-HLA-E complex to CD94/NKG2C normalized to a fitted Rmax (CD94/NKG2C; CD94/NKG2C concentration 0.8 μM): 0.046
binding of peptide-HLA-E complex to CD94/NKG2C normalized to a fitted Rmax (CD94/NKG2C; CD94/NKG2C concentration 1.6 μM): 0.089
binding of peptide-HLA-E complex to CD94/NKG2C normalized to a fitted Rmax (CD94/NKG2C; CD94/NKG2C concentration 3.2 μM): 0.168
binding of peptide-HLA-E complex to CD94/NKG2C normalized to a fitted Rmax (CD94/NKG2C; CD94/NKG2C concentration 6.4 μM): 0.281
binding of peptide-HLA-E complex to CD94/NKG2C normalized to a fitted Rmax (CD94/NKG2C; CD94/NKG2C concentration 12.8 μM): 0.443
binding of peptide-HLA-E complex to CD94/NKG2C normalized to a fitted Rmax (CD94/NKG2C; CD94/NKG2C concentration 25.6 μM): 0.621
binding of peptide-HLA-E complex to CD94/NKG2C normalized to a fitted Rmax (CD94/NKG2C; CD94/NKG2C concentration 51.2 μM): 0.755
binding of peptide-HLA-E complex to CD94/NKG2C normalized to a fitted Rmax (CD94/NKG2C; CD94/NKG2C concentration 102.4 μM): 0.867
Binding of peptide-HLA-E complexes to CD94/NKG2C normalized to a theoretical Rmax (CD94/NKG2C; CD94/NKG2C analyte concentration 0 μM): −0.003
Binding of peptide-HLA-E complexes to CD94/NKG2C normalized to a theoretical Rmax (CD94/NKG2C; CD94/NKG2C analyte concentration 0.1 μM): 0.002
Binding of peptide-HLA-E complexes to CD94/NKG2C normalized to a theoretical Rmax (CD94/NKG2C; CD94/NKG2C analyte concentration 0.2 μM): 0.007
Binding of peptide-HLA-E complexes to CD94/NKG2C normalized to a theoretical Rmax (CD94/NKG2C; CD94/NKG2C analyte concentration 0.4 μM): 0.017
Binding of peptide-HLA-E complexes to CD94/NKG2C normalized to a theoretical Rmax (CD94/NKG2C; CD94/NKG2C analyte concentration 0.8 μM): 0.034
Binding of peptide-HLA-E complexes to CD94/NKG2C normalized to a theoretical Rmax (CD94/NKG2C; CD94/NKG2C analyte concentration 1.6 μM): 0.066
Binding of peptide-HLA-E complexes to CD94/NKG2C normalized to a theoretical Rmax (CD94/NKG2C; CD94/NKG2C analyte concentration 3.2 μM): 0.124
Binding of peptide-HLA-E complexes to CD94/NKG2C normalized to a theoretical Rmax (CD94/NKG2C; CD94/NKG2C analyte concentration 6.4 μM): 0.207
Binding of peptide-HLA-E complexes to CD94/NKG2C normalized to a theoretical Rmax (CD94/NKG2C; CD94/NKG2C analyte concentration 12.8 μM): 0.326
Binding of peptide-HLA-E complexes to CD94/NKG2C normalized to a theoretical Rmax (CD94/NKG2C; CD94/NKG2C analyte concentration 25.6 μM): 0.457
Binding of peptide-HLA-E complexes to CD94/NKG2C normalized to a theoretical Rmax (CD94/NKG2C; CD94/NKG2C analyte concentration 51.2 μM): 0.555
Binding of peptide-HLA-E complexes to CD94/NKG2C normalized to a theoretical Rmax (CD94/NKG2C; CD94/NKG2C analyte concentration 102.4 μM): 0.638
binding of peptide-HLA-E complex to CD94/NKG2A normalized to a fitted Rmax (CD94/NKG2A; CD94/NKG2A concentration 0 μM): −0.007
binding of peptide-HLA-E complex to CD94/NKG2A normalized to a fitted Rmax (CD94/NKG2A; CD94/NKG2A concentration 0.1 μM): 0.023
binding of peptide-HLA-E complex to CD94/NKG2A normalized to a fitted Rmax (CD94/NKG2A; CD94/NKG2A concentration 0.2 μM): 0.046
binding of peptide-HLA-E complex to CD94/NKG2A normalized to a fitted Rmax (CD94/NKG2A; CD94/NKG2A concentration 0.4 μM): 0.094
binding of peptide-HLA-E complex to CD94/NKG2A normalized to a fitted Rmax (CD94/NKG2A; CD94/NKG2A concentration 0.8 μM): 0.173
binding of peptide-HLA-E complex to CD94/NKG2A normalized to a fitted Rmax (CD94/NKG2A; CD94/NKG2A concentration 1.6 μM): 0.293
binding of peptide-HLA-E complex to CD94/NKG2A normalized to a fitted Rmax (CD94/NKG2A; CD94/NKG2A concentration 3.2 μM): 0.450
binding of peptide-HLA-E complex to CD94/NKG2A normalized to a fitted Rmax (CD94/NKG2A; CD94/NKG2A concentration 6.4 μM): 0.618
binding of peptide-HLA-E complex to CD94/NKG2A normalized to a fitted Rmax (CD94/NKG2A; CD94/NKG2A concentration 12.8 μM): 0.766
binding of peptide-HLA-E complex to CD94/NKG2A normalized to a fitted Rmax (CD94/NKG2A; CD94/NKG2A concentration 25.6 μM): 0.873
binding of peptide-HLA-E complex to CD94/NKG2A normalized to a fitted Rmax (CD94/NKG2A; CD94/NKG2A concentration 51.2 μM): 0.942
binding of peptide-HLA-E complex to CD94/NKG2A normalized to a fitted Rmax (CD94/NKG2A; CD94/NKG2A concentration 102.4 μM): 0.954
Binding of peptide-HLA-E complexes to CD94/NKG2A normalized to a theoretical Rmax (CD94/NKG2A; CD94/NKG2A analyte concentration 0.000 μM): −0.005
Binding of peptide-HLA-E complexes to CD94/NKG2A normalized to a theoretical Rmax (CD94/NKG2A; CD94/NKG2A analyte concentration 0.100 μM): 0.017
Binding of peptide-HLA-E complexes to CD94/NKG2A normalized to a theoretical Rmax (CD94/NKG2A; CD94/NKG2A analyte concentration 0.200 μM): 0.034
Binding of peptide-HLA-E complexes to CD94/NKG2A normalized to a theoretical Rmax (CD94/NKG2A; CD94/NKG2A analyte concentration 0.400 μM): 0.070
Binding of peptide-HLA-E complexes to CD94/NKG2A normalized to a theoretical Rmax (CD94/NKG2A; CD94/NKG2A analyte concentration 0.800 μM): 0.131
Binding of peptide-HLA-E complexes to CD94/NKG2A normalized to a theoretical Rmax (CD94/NKG2A; CD94/NKG2A analyte concentration 1.600 μM): 0.221
Binding of peptide-HLA-E complexes to CD94/NKG2A normalized to a theoretical Rmax (CD94/NKG2A; CD94/NKG2A analyte concentration 3.200 μM): 0.339
Binding of peptide-HLA-E complexes to CD94/NKG2A normalized to a theoretical Rmax (CD94/NKG2A; CD94/NKG2A analyte concentration 6.400 μM): 0.465
Binding of peptide-HLA-E complexes to CD94/NKG2A normalized to a theoretical Rmax (CD94/NKG2A; CD94/NKG2A analyte concentration 12.800 μM): 0.577
Binding of peptide-HLA-E complexes to CD94/NKG2A normalized to a theoretical Rmax (CD94/NKG2A; CD94/NKG2A analyte concentration 25.600 μM): 0.657
Binding of peptide-HLA-E complexes to CD94/NKG2A normalized to a theoretical Rmax (CD94/NKG2A; CD94/NKG2A analyte concentration 51.200 μM): 0.709
Binding of peptide-HLA-E complexes to CD94/NKG2A normalized to a theoretical Rmax (CD94/NKG2A; CD94/NKG2A analyte concentration 102.400 μM): 0.718
effect on NKG2A+/NKG2C− NK cell inhibition (in words) (NKG2A+/NKG2C− NK cells; K562 expressing HLA-E, CD107a, IFNG, TNF, CCL3): mild inhibitory effects
percentage of CCL3+ NK cells (NKG2A+/NKG2C− NK cells; Trial 1): 17.5%
percentage of CD107a+ NK cells (NKG2A+/NKG2C− NK cells; Trial 1): 10.8%
percentage of IFNG+ NK cells (NKG2A+/NKG2C− NK cells; Trial 1): 2.35%
percentage of TNF+ NK cells (NKG2A+/NKG2C− NK cells; Trial 1): 0.83%
percentage of CCL3+ NK cells (NKG2A+/NKG2C− NK cells; Trial 2): 34.9%
percentage of CD107a+ NK cells (NKG2A+/NKG2C− NK cells; Trial 2): 13%
percentage of IFNG+ NK cells (NKG2A+/NKG2C− NK cells; Trial 2): 2.85%
percentage of TNF+ NK cells (NKG2A+/NKG2C− NK cells; Trial 2): 1.25%
percentage of CCL3+ NK cells (NKG2A+/NKG2C− NK cells; Trial 3): 17.3%
percentage of CD107a+ NK cells (NKG2A+/NKG2C− NK cells; Trial 3): 16.7%
percentage of IFNG+ NK cells (NKG2A+/NKG2C− NK cells; Trial 3): 7.56%
percentage of TNF+ NK cells (NKG2A+/NKG2C− NK cells; Trial 3): 3.94%
percentage of CCL3+ NK cells (NKG2A+/NKG2C− NK cells; Trial 4): 13.3%
percentage of CD107a+ NK cells (NKG2A+/NKG2C− NK cells; Trial 4): 15.1%
percentage of IFNG+ NK cells (NKG2A+/NKG2C− NK cells; Trial 4): 2.41%
percentage of TNF+ NK cells (NKG2A+/NKG2C− NK cells; Trial 4): 1.74%
percentage of CCL3+ NK cells (NKG2A+/NKG2C− NK cells; Trial 5): 29.3%
percentage of CD107a+ NK cells (NKG2A+/NKG2C− NK cells; Trial 5): 14.4%
percentage of IFNG+ NK cells (NKG2A+/NKG2C− NK cells; Trial 5): 5.78%
percentage of TNF+ NK cells (NKG2A+/NKG2C− NK cells; Trial 5): 2.47%
percentage of CCL3+ NK cells (NKG2A+/NKG2C− NK cells; Trial 6): 16.2%
percentage of CD107a+ NK cells (NKG2A+/NKG2C− NK cells; Trial 6): 14%
percentage of IFNG+ NK cells (NKG2A+/NKG2C− NK cells; Trial 6): 3.48%
percentage of TNF+ NK cells (NKG2A+/NKG2C− NK cells; Trial 6): 2.18%
